ChEMBL document CHEMBL1201862, “PubChem BioAssay data set” (2004)
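Dose response: 5 concentrations. Exposure: 48 h. Format: 96-well plates. Endpoint: linear interpolation; highest concentration if not reached. GI50: concentration for 50% inhibition of growth.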 Calls of active or inactive are those of the source. No stated cut-off is given here; in the data, active = GI50 up to about 1.1 µM and inactive = higher.

Columns and labels:
Test in all cases: NCI-60 cell line screen, 48 h
SK-MEL-28 = tested on: SK-MEL-28
SR = tested on: SR
786-0 = tested on: 786-0
NCI-H460 = tested on: NCI-H460
UACC-257 = tested on: UACC-257
SNB-75 = tested on: SNB-75
COLO 205 = tested on: COLO 205
MOLT-4 = tested on: MOLT-4
BT-549 = tested on: BT-549
NCI-H522 = tested on: NCI-H522
T47D = tested on: T47D
KM12 = tested on: KM12
SK-MEL-5 = tested on: SK-MEL-5
K562 = tested on: K562
Malme-3M = tested on: Malme-3M
MDA-MB-435 = tested on: MDA-MB-435
HL-60 = tested on: HL-60
LOX IMVI = tested on: LOX IMVI
HCC 2998 = tested on: HCC 2998
RXF 393 = tested on: RXF 393

SMILES	GI50 (SK-MEL-28)	GI50 (SR)	GI50 (786-0)	GI50 (NCI-H460)	GI50 (UACC-257)	GI50 (SNB-75)	GI50 (COLO 205)	GI50 (MOLT-4)	GI50 (BT-549)	GI50 (NCI-H522)	GI50 (T47D)	GI50 (KM12)	GI50 (SK-MEL-5)	GI50 (K562)	GI50 (Malme-3M)	GI50 (MDA-MB-435)	GI50 (HL-60)	GI50 (LOX IMVI)	GI50 (HCC 2998)	GI50 (RXF 393)
Cc1c2ncccc2cc2oc3ccccc3c(=O)c12	> 100 µM (inactive)	41.2 µM (inactive)	> 100 µM (inactive)	5.46 µM (inactive)	58.5 µM (inactive)	> 100 µM (inactive)	31.2 µM (inactive)	2.94 µM (inactive)	55.8 µM (inactive)	31.5 µM (inactive)	18.1 µM (inactive)	55.6 µM (inactive)	18.2 µM (inactive)	24.9 µM (inactive)	68.4 µM (inactive)	56.8 µM (inactive)	34 µM (inactive)	11.1 µM (inactive)	60.7 µM (inactive)	61.4 µM (inactive)
COc1ccc(N2C(=O)C(C)SC2c2cc3cc(Br)ccc3nc2Cl)cc1 (centres undefined)	38.1 µM (inactive)	18.1 µM (inactive)	45.8 µM (inactive)	30.9 µM (inactive)	30.7 µM (inactive)	91 µM (inactive)	35.5 µM (inactive)	20.9 µM (inactive)	24.9 µM (inactive)	21.3 µM (inactive)	34.3 µM (inactive)	30.8 µM (inactive)	36.1 µM (inactive)	31.3 µM (inactive)	82.4 µM (inactive)	19.7 µM (inactive)	24.8 µM (inactive)	33 µM (inactive)	33.3 µM (inactive)	28.8 µM (inactive)
COc1cccc(-c2cc(=O)c3ccccc3o2)c1N	10.1 µM (inactive)	> 100 µM (inactive)	71 µM (inactive)	> 59 µM (inactive)	36.6 µM (inactive)	51.6 µM (inactive)	9.93 µM (inactive)	> 100 µM (inactive)	> 100 µM (inactive)	27.9 µM (inactive)	11.9 µM (inactive)	> 100 µM (inactive)	42.8 µM (inactive)	> 75.3 µM (inactive)	3.62 µM (inactive)	23 µM (inactive)	6.76 µM (inactive)	> 100 µM (inactive)	28.2 µM (inactive)	45 µM (inactive)
COC(=O)CNC(=O)CCC(C)[C@H]1CCC2C3C(C[C@H](OC(C)=O)[C@@]21C)[C@@]1(C)CCC2(C[C@H]1C[C@H]3OC(C)=O)OOC1(CCCCC1)OO2 (some centres undefined)	9.29 µM (inactive)	1.24 µM (inactive)	2.04 µM (inactive)	1.76 µM (inactive)	6.31 µM (inactive)	2.23 µM (inactive)	1.91 µM (inactive)	3.55 µM (inactive)	1.69 µM (inactive)	1.48 µM (inactive)	2.58 µM (inactive)	2.01 µM (inactive)	2.63 µM (inactive)	3.14 µM (inactive)	3.37 µM (inactive)	2.07 µM (inactive)	2.36 µM (inactive)	2.12 µM (inactive)	2 µM (inactive)	1.99 µM (inactive)
CN(C)c1ccc(/C=C(/NC(=O)c2ccccc2)C(=O)Nc2ccccc2C(=O)O)cc1	> 100 µM (inactive)	> 100 µM (inactive)	> 100 µM (inactive)	> 100 µM (inactive)	> 100 µM (inactive)	> 100 µM (inactive)	> 100 µM (inactive)	> 100 µM (inactive)	> 100 µM (inactive)	> 100 µM (inactive)	> 100 µM (inactive)	> 100 µM (inactive)	> 100 µM (inactive)	> 100 µM (inactive)	> 100 µM (inactive)	> 100 µM (inactive)	> 100 µM (inactive)	> 100 µM (inactive)	> 100 µM (inactive)	> 100 µM (inactive)
Cc1cc(O)c2c(c1)C(=O)C(c1c(C)cc3c(c1O)C(=O)C1OC1C3=O)=CC2=O (centres undefined)	1.94 µM (inactive)	0.327 µM (active)	1.64 µM (inactive)	7.87 µM (inactive)	4.74 µM (inactive)	12.4 µM (inactive)	0.561 µM (active)	0.147 µM (active)	2.4 µM (inactive)	0.469 µM (active)	1.98 µM (inactive)	13.7 µM (inactive)	6.34 µM (inactive)	0.339 µM (active)	1.73 µM (inactive)	2.54 µM (inactive)	0.0175 µM (active)	2.02 µM (inactive)	5.93 µM (inactive)	1.35 µM (inactive)
CCOC(=O)C1CCC(=O)N1C(=O)c1ccccc1Cl (centres undefined)	> 100 µM (inactive)	> 100 µM (inactive)	> 100 µM (inactive)	> 100 µM (inactive)	> 100 µM (inactive)	> 100 µM (inactive)	–	> 100 µM (inactive)	> 100 µM (inactive)	> 100 µM (inactive)	> 100 µM (inactive)	> 100 µM (inactive)	> 100 µM (inactive)	> 100 µM (inactive)	> 100 µM (inactive)	> 100 µM (inactive)	> 100 µM (inactive)	> 100 µM (inactive)	> 100 µM (inactive)	> 100 µM (inactive)
